From PMC8536644, “Enigmatic mechanism of the N-vinylpyrrolidone hepatocarcinogenicity in the rat” (Archives of Toxicology, 2021)
Several values for one entry are separate records, joined by “and”; a condition that tells them apart may be missing. Equal entries are not always repeated. Where two headings read alike, the source gives them in different places.

Tests used:
[1] = Trypan Blue viability of the single cell suspension, liver; format: in vivo, rat; conditions: rat, inhaled
rat liver cells [2] = experiment: as above; format: in vivo; conditions: liver, 5 days, individual animals
rat liver cells [3] = experiment: Comet assay, conventional (no FPG), liver; conditions: for Hedgehogs/100 cells (mean ± SD) / TI (%) (mean ± SD) / TI (%), mean of medians from 2 slides: liver, no FPG, 5 days; for TI (%), mean of medians from 2 slides: individual animals
Experimental: Animals were anesthetized by 3.5% isoflurane (approximately 3 min, evaporator Dräger Vapor 19.3) and then killed by cervical dislocation. The liver was removed and its left lateral lobe used for the Comet assay. The remainder of the liver was washed in saline and then in two aliquots shock frozen in liquid nitrogen and stored at − 80 °C for later examinations. Subsequently the lung was removed from the dead animal. Its left lobe was used for the Comet assay and the remainder treated as described above for the liver. Thereafter the femora were removed for the preparation of the bone marrow.
The Comet assay was performed under alkaline conditions according to the principles described by Singh et al. ([1988]) and Tice et al. ([2000]).
Liver and lung cells were obtained essentially as described by Hartmann et al. ([2004]) and by the Japanese Center for the Validation of Alternative Methods (JaCVAM [2009]). Single cells were obtained within 1 h after killing of the animals in order to minimize DNA damage during the preparation.
The organ parts (see above) were washed in mincing buffer (50 mM EDTA in HBSS [without Ca^2+ and Mg^2+] pH 7.5: DMSO 9:1 (v/v), the latter added shortly before use, stored at 4 °C), cut into 1 to 2-mm pieces in ice-cold mincing buffer and transferred to a cell sieve with 70-µm pores. The viability of the cell suspension was evaluated by the Trypan Blue Assay (Strober [2001]).
100 µL of the obtained cell suspension was mixed at 37 °C with 900 µL Low Melting Agarose (LMA) (0.7% agarose in phosphate-buffered saline [PBS] [Biochrom, Berlin, Germany] without Ca^2+ and Mg^2+). 100 µL of this mixture was transferred to a slide, which had been coated with Normal Melting Agarose (NMA) (0.6% agarose in PBS without Ca^2+ and Mg^2+). The slides were protected with a cover slip and the agarose was hardened at approximately 4 °C. The cover slips were then removed and the slides put over night at 4 °C into lysis buffer (2.5 M NaCl, 125 mM NaOH, 127 mM EDTA, 10 mM Tris/NaOH, pH 10; 1% Triton X-100 and 10% DMSO (v/v), the latter two added before use) in order to lyse the cell membrane, nuclear membrane and remove the histone.
The then following procedures were performed in a shaded room to minimize UV-mediated DNA damage during the procedures.
Remaining lysis buffer or FPG buffer was removed by immersing/washing the slides in PBS (without Ca^2+ and Mg^2+).
The slides were then placed into the electrophoresis chamber, which was cooled and protected from light. Slides were covered with electrophoresis buffer (0.3 M NaOH, 1 mM EDTA, pH > 13) carefully avoiding air bubbles. The DNA was allowed to unwind (20 min). Thereafter the electrophoresis was started (25 V, 300 mA, […], 30 min). The slides were then washed (2 times 5 min) in neutralization buffer (0.4 M Tris/HCl, pH 7.5), dehydrated and fixed in 100% ethanol (1 min), dried at room temperature overnight and stored at room temperature protected from dust.
Quantitative evaluation of the Comet assays was performed by fluorescence microscopy after DNA staining with ethidium bromide.

[4] = system: polychromatic erythrocytes of rat bone marrow; experiment: Micronucleus test in rat bone marrow (OECD 474); conditions: for MN/ 1000 PCE Mean ± SD / MN/ 1000 PCE Range / PCE/1000 Erythrozyten Mean ± SD / PCE/NCE quotient (%): 5 days
Experimental: 13-mm filter disks with a pore size of 8 µm were placed on the bottom of 5-mL plastic syringes. Approximately 500 mg of a mixture consisting of equal parts microcrystalline cellulose (Sigmacell®, Typ 50) and alpha-cellulose fibers was added up to the 2-mL mark.
Bone marrow preparation was performed according to published methods (Romagna and Staniforth [1989]; Salamone et al. [1980]). The soft tissue was removed from the femora and the epiphyses were cut off. The bone marrow was rinsed off the diaphyses with approximately 3 mL 37 °C-warm fetal calf serum (FCS) (Biochrom, Berlin, Germany) per femur, placed on the above-described cellulose column and eluted with 3 mL of Hank's Balanced Salt Solution (HBSS) (Biochrom, Berlin, Germany) (with Ca^2+ und Mg^2+). The eluate was centrifuged at 300 g for 5 min and the pellet was suspended in […] FCS. From this suspension three portions per femur were individually placed on slides, air-dried and then stained for 4 min in May-Grunwald solution 1 (Merck, Darmstadt, Germany), followed by 4 min in May–Grunwald solution 2 (May-Grunwald solution 1 diluted 1:1 with aqua bidest.), rinsed in aqua bidest and then stained with Giemsa solution (7.5% dilution derived from Giemsa obtained from Merck, Darmstadt, Germany) for 15 min. Subsequently, the slides were washed twice with aqua bidest, then dried, cleared in xylene and covered with Corbit-Balsam (I. Hecht, Kiel-Hasse, Germany).
2000 polychromatic erythrocytes (PCE) per animal (1000 per slide) were evaluated at 1000-fold magnification under immersion oil for the presence/absence of large and small micronuclei as well as the proportion of PCE among the total erythrocytes. Statistical significance of differences between treated versus untreated groups was evaluated by the one-sided Wilcoxon test (using the program MUKERN). The result is regarded as positive when the following criteria are fulfilled: 1.
2000 PCEs were analyzed for micronuclei per animal.

## C=CN1CCCC1=O [NVP, N-vinylpyrrolidone]
[1]; both sexes, Wistar Crl:WI (Han), liver and lung single cell suspensions, either of the two organs (liver, lung) after NVP treatment, read-out: Viability (dye exclusion test)
  viability at 5 days: > 90%
[1]; both sexes, Wistar Crl:WI (Han), liver single cell suspension, liver cells, NVP-exposed, read-out: Viability, range of the individual animals
  viability at 5 days: 90 to 99%
[1]; female, Wistar, liver, 5 ppm, liver, female, Comet with FPG (Table 9), 5 ppm inhalation, 5 days, individual animals, read-out: Individual viability (%)
  viability at 5 days: 99%
[1]; female, Wistar, liver, 5 ppm, liver, female, Comet with FPG (Table 9), 5 ppm inhalation, 5 days, read-out: Viability (%) (mean ± SD)
  viability at 5 days: 99 ± 1%
[1]; female, Wistar, liver, 5 ppm, liver, female, no FPG, 5 ppm inhalation, 5 days, individual animals, read-out: Individual viability (%)
  viability at 5 days: 98%
[1]; female, Wistar, liver, 5 ppm, liver, female, no FPG, 5 ppm inhalation, 5 days, read-out: Viability (%) (mean ± SD)
  viability at 5 days: 97 ± 1%
[1]; female, Wistar, liver, 10 ppm, liver, female, Comet with FPG (Table 9), 10 ppm inhalation, 5 days, individual animals, read-out: Individual viability (%)
  viability at 5 days: 98%
[1]; female, Wistar, liver, 10 ppm, liver, female, Comet with FPG (Table 9), 10 ppm inhalation, 5 days, read-out: Viability (%) (mean ± SD)
  viability at 5 days: 98 ± 1%
[1]; female, Wistar, liver, 10 ppm, liver, female, no FPG, 10 ppm inhalation, 5 days, individual animals, read-out: Individual viability (%)
  viability at 5 days: 96%
[1]; female, Wistar, liver, 10 ppm, liver, female, no FPG, 10 ppm inhalation, 5 days, read-out: Viability (%) (mean ± SD)
  viability at 5 days: 96 ± 1%
[1]; female, Wistar, liver, 20 ppm, liver, female, Comet with FPG (Table 9), 20 ppm inhalation, 5 days, individual animals, read-out: Individual viability (%)
  viability at 5 days: 98%
[1]; female, Wistar, liver, 20 ppm, liver, female, Comet with FPG (Table 9), 20 ppm inhalation, 5 days, read-out: Viability (%) (mean ± SD)
  viability at 5 days: 98 ± 1%
[1]; female, Wistar, liver, 20 ppm, liver, female, no FPG, 20 ppm inhalation, 5 days, individual animals, read-out: Individual viability (%)
  viability at 5 days: 96%
[1]; female, Wistar, liver, 20 ppm, liver, female, no FPG, 20 ppm inhalation, 5 days, read-out: Viability (%) (mean ± SD)
  viability at 5 days: 97 ± 1%
[1]; male, Wistar, liver, 5 ppm, liver, male, Comet with FPG (Table 8), 5 ppm inhalation, 5 days, individual animals, read-out: Individual viability (%)
  viability at 5 days: 97%
[1]; male, Wistar, liver, 5 ppm, liver, male, Comet with FPG (Table 8), 5 ppm inhalation, 5 days, read-out: Viability (%) (mean ± SD)
  viability at 5 days: 98 ± 1%
[1]; male, Wistar, liver, 5 ppm, liver, male, no FPG, 5 ppm inhalation, 5 days, individual animals, read-out: Individual viability (%)
  viability at 5 days: 92%
[1]; male, Wistar, liver, 5 ppm, liver, male, no FPG, 5 ppm inhalation, 5 days, read-out: Viability (%) (mean ± SD)
  viability at 5 days: 95 ± 3%
[1]; male, Wistar, liver, 10 ppm, liver, male, Comet with FPG (Table 8), 10 ppm inhalation, 5 days, individual animals, read-out: Individual viability (%)
  viability at 5 days: 99%
[1]; male, Wistar, liver, 10 ppm, liver, male, Comet with FPG (Table 8), 10 ppm inhalation, 5 days, read-out: Viability (%) (mean ± SD)
  viability at 5 days: 98 ± 2%
[1]; male, Wistar, liver, 10 ppm, liver, male, no FPG, 10 ppm inhalation, 5 days, individual animals, read-out: Individual viability (%)
  viability at 5 days: 96%
[1]; male, Wistar, liver, 10 ppm, liver, male, no FPG, 10 ppm inhalation, 5 days, read-out: Viability (%) (mean ± SD)
  viability at 5 days: 96 ± 1%
[1]; male, Wistar, liver, 20 ppm, liver, male, Comet with FPG (Table 8), 20 ppm inhalation, 5 days, individual animals, read-out: Individual viability (%)
  viability at 5 days: 100%
[1]; male, Wistar, liver, 20 ppm, liver, male, Comet with FPG (Table 8), 20 ppm inhalation, 5 days, read-out: Viability (%) (mean ± SD)
  viability at 5 days: 99 ± 1%
[1]; male, Wistar, liver, 20 ppm, liver, male, no FPG, 20 ppm inhalation, 5 days, individual animals, read-out: Individual viability (%)
  viability at 5 days: 98%
[1]; male, Wistar, liver, 20 ppm, liver, male, no FPG, 20 ppm inhalation, 5 days, read-out: Viability (%) (mean ± SD)
  viability at 5 days: 97 ± 1%
Rat liver cells [2]; female, no FPG, 10 ppm inhalation
  Individual viability (%): 94%
Rat liver cells [2]; male, Comet with FPG (Table 8), 10 ppm inhalation
  Individual viability (%): 93%
Rat liver cells [2]; male, no FPG, 5 ppm inhalation
  Individual viability (%): 90%
Rat liver cells [2]; male, no FPG, 10 ppm inhalation
  Individual viability (%): 94%
Rat liver cells [3]; NVP-treated liver cells, with or without FPG
  Hedgehogs: 1–5%
Rat liver cells [3]; female, 5 ppm inhalation
  Hedgehogs/100 cells (mean ± SD): 3 ± 3 /100 cells
  TI (%) (mean ± SD): 1.0 ± 0.40%
  TI (%), mean of medians from 2 slides: 0.9% and 1.1% and 1.7% and 0.8% and 0.6%
Rat liver cells [3]; female, 10 ppm inhalation
  Hedgehogs/100 cells (mean ± SD): 4 ± 4 /100 cells
  TI (%) (mean ± SD): 0.9 ± 0.48%
  TI (%), mean of medians from 2 slides: 1.3% and 0.6% and 0.5% and 1.4% and 0.3%
Rat liver cells [3]; female, 20 ppm inhalation
  Hedgehogs/100 cells (mean ± SD): 3 ± 2 /100 cells
  TI (%) (mean ± SD): 0.7 ± 0.34%
Rat liver cells [3]; male, 5 ppm inhalation
  Hedgehogs/100 cells (mean ± SD): 3 ± 2 /100 cells
  TI (%) (mean ± SD): 0.9 ± 0.22%
  TI (%), mean of medians from 2 slides: 1.2% and 0.9% and 0.6% and 0.7% and 1.1%
Rat liver cells [3]; male, 10 ppm inhalation
  Hedgehogs/100 cells (mean ± SD): 3 ± 1 /100 cells
  TI (%) (mean ± SD): 1.0 ± 0.68%
  TI (%), mean of medians from 2 slides: 0.7% and 2.4% and 1.0% and 0.6%
Rat liver cells [3]; male, 20 ppm inhalation
  Hedgehogs/100 cells (mean ± SD): 3 ± 1 /100 cells
  TI (%) (mean ± SD): 0.7 ± 0.34%
  TI (%), mean of medians from 2 slides: 1.2% and 0.8% and 0.5% and 1.0% and 0.3%
[4]; 5, 10, 20 ppm, male and female rats
  Mean number of micronuclei in PCE, range over groups: 1.4 to 2.9 ‰
[4]; 5 ppm inhalation, female
  MN/ 1000 PCE Mean ± SD: 1.4 ± 0.7 MN/ 1000 PCE
  MN/ 1000 PCE Range: 0.5–2.5 MN/ 1000 PCE
  PCE/1000 Erythrozyten Mean ± SD: 629 ± 18 PCE/1000 Erythrozyten
  PCE/NCE quotient (%): 99%
[4]; 5 ppm inhalation, male
  MN/ 1000 PCE Mean ± SD: 2.6 ± 0.9 MN/ 1000 PCE
  MN/ 1000 PCE Range: 1.5–4.0 MN/ 1000 PCE
  PCE/1000 Erythrozyten Mean ± SD: 609 ± 40 PCE/1000 Erythrozyten
  PCE/NCE quotient (%): 100%
[4]; 5 ppm, 10 ppm or 20 ppm
  Increase in micronuclei in the PCE: no significant increase
[4]; 10 ppm inhalation, female
  MN/ 1000 PCE Mean ± SD: 1.7 ± 1.0 MN/ 1000 PCE
  MN/ 1000 PCE Range: 0.5–3.0 MN/ 1000 PCE
  PCE/1000 Erythrozyten Mean ± SD: 612 ± 44 PCE/1000 Erythrozyten
  PCE/NCE quotient (%): 96%
[4]; 10 ppm inhalation, male
  MN/ 1000 PCE Mean ± SD: 2.9 ± 1.9 MN/ 1000 PCE
  MN/ 1000 PCE Range: 1.5–6.5 MN/ 1000 PCE
  PCE/1000 Erythrozyten Mean ± SD: 622 ± 33 PCE/1000 Erythrozyten
  PCE/NCE quotient (%): 102%
[4]; 20 ppm inhalation, female
  MN/ 1000 PCE Mean ± SD: 2.3 ± 0.8 MN/ 1000 PCE
  MN/ 1000 PCE Range: 1.0–3.0 MN/ 1000 PCE
  PCE/1000 Erythrozyten Mean ± SD: 615 ± 48 PCE/1000 Erythrozyten
  PCE/NCE quotient (%): 97%
[4]; 20 ppm inhalation, male
  MN/ 1000 PCE Mean ± SD: 2.0 ± 0.9 MN/ 1000 PCE
  MN/ 1000 PCE Range: 0.5–3.0 MN/ 1000 PCE
  PCE/1000 Erythrozyten Mean ± SD: 553 ± 57 PCE/1000 Erythrozyten
  PCE/NCE quotient (%): 90%
[4]; after exposure to NVP
  Micronuclei in normochromatic erythrocytes (NCE): no micronuclei were observed
[4]; high-dose (20 ppm) males vs vehicle control
  Decrease of the ratio of PCE to NCE: 10%
